pIC50: −log10 of the molar value. Values joined by “and” are separate entries in the source; they are usually repeats but may differ in a detail not shown here. Equal values may be shown once. Read-outs that look alike come from different tables or passages of the source. A value given as a limit tells only on which side of the number the result lay.

These results are taken from patent publication EP0777471B1, “INHIBITION OF LEUKOTRIENE BIOSYNTHESIS WITH UREA DERIVATIVES” (MINNESOTA MINING AND MANUFACTURING COMPANY, priority 1994, dated 1996).

For test [1], the system named is production of Leukotriene B4 (LTB4). As to the kind of experiment: Dog ex vivo Leukotriene B4 inhibition (oral dosing, blood challenged with calcium ionophore). The format is in vivo, beagle dogs. Particulars: each entry one dog, negative = stimulation of LTB4 production; for inhibition at 5 mg/kg: Canis lupus familiaris, po. Here is the method: The test method described below measures the ability of a compound when administered orally to dogs to inhibit the production of Leukotriene B4 (LTB4) in their blood which is drawn and challenged at selected time points.
The test is conducted in beagle dogs (male and female; about 10 Kg). Prior to starting, the neck area of the beagle is shaved to allow easy access to the jugular vein. A 3-4 mL sample of blood is drawn from the jugular vein into a heparinized vacutainer. The dog is then dosed using a tube long enough to reach its stomach. The compound is dissolved in PEG 400 at a concentration such that the appropriate dose can be administered in approximately 5 mL. Immediately after the compound is given, a flush using 5 mL of vehicle is given to rinse the dosing tube. At selected time points following the dose, a 3-4 mL sample of blood is drawn.
The blood samples that have been drawn are challenged as soon as possible. A 0.5 mL portion of blood is aliquoted into 3 tubes (1 mL microtiter tubes). A 1 µL portion of 25 mM calcium ionophore in dimethyl sulfoxide is added to 2 of the tubes. A 1 µL portion of dimethyl sulfoxide is added to the third tube. The tubes are lightly mixed then placed in a 37°C water bath for 30 minutes. The tubes are centrifuged at 11,000 rpm for 3 minutes and the plasma supernatant is transferred to clean tubes. A 50 µL portion of this plasma is added to a I mL microtiter tube containing 200 µL of methanol. The tubes are placed in the freezer at -20°C for at least 1 hour then centrifuged at 2000 rpm for 10 minutes. A 10 µL portion of the methanol supematant is dried under vacuum at ambient temperature and then reconstituted in LTB4 buffer. The amount of LTB4 in the sample is determined by radioimmunoassay performed according to the manufacturer's (Advanced Magnetics; Cambridge, MA) instructions. Percent inhibition values are obtained by comparing the level of LTB4 in the post-dose sample to the level in the pre-dose sample according to the equation below. % Inhibition =((LTB4 predose) - (LTB4 postdose))/((LTB4 predose))X 100 [formula]
A number of the compounds that are useful in the practice of the method of the invention were tested. The results are shown in Table 15 below where each entry represents the results from one dog. A negative number indicates stimulation of LTB4 production. All compounds were tested at a dose of 5 mg/Kg.

Test [2] has as its system production of Leukotriene B4. Briefly: Rat ex vivo Leukotriene B4 inhibition (oral dosing, blood challenged with A23187). Format: in vivo, Rats. The settings on record: two hours post dose. Here is the method: The test method described below measures the ability of a compound when administered orally to rats to inhibit the production of Leukotriene B4 in their blood which is drawn and challenged.
Rats (CD, male, non-fasted, 250 g) are lightly anesthetized with carbon dioxide and an approximately 0.75 mL sample of whole blood is obtained via cardiac puncture. The sample is dispensed into 12 X 75 mm polypropylene tubes containing 8-10 µL of 10,000 units/mL heparin, mixed and then maintained on ice. The rats are allowed to recover approximately one hour then dosed orally with compound dissolved in PEG 400 at a 5 mL/Kg volume. Five (5) rats are utilized per group. Two (2) hours post dose the rats are again anesthetized with carbon dioxide and the blood sampled again via cardiac puncture.
Duplicate 200 µL portions of blood are added to 1.0 mL polypropylene tubes. A 10 µL portion of 1mM A23187 Calcium Ionophore in dimethyl sulfoxide/Tris buffer is added to each tube. The tubes are gently vortexed then incubated in a 37°C water bath for 30 minutes. The tubes are then centrifuged at 4000 rpm for 10 minutes. 50 µL portions of plasma are transferred to 1.0 mL tubes containing 200 µL of methanol. The tubes are vortexed then placed in the freezer overnight.
The tubes are removed from the freezer then centrifuged at 4000 rpm for 10 minutes. […] portions of the methanol/plasma supernatant and 10 µL methanol dilutions of LTB4 standard curve are transferred to 96 well v-bottom microtiter plates. The plates are vacuum dried at 40°C. A 40 µL portion of LTB4 radioimmunoassay buffer is added to each well. The plate is bath sonicated for 5 minutes then assayed according to the manufacturer's (Advanced Magnetics; Cambridge, MA) instructions. Percent inhibition values are obtained by comparing the level of LTB4 in the post-dose samples to the level in the pre-dose samples according to the equation below. % Inhibition =((LTB4 pre-dose) - (LTB4 post-dose))/((LTB4 pre-dose))X 100 [formula]

For a further test, the target named is T1, 5-lipoxygenase (Homo sapiens, UniProt P09917).
T1 construct: Whole human blood is collected by venipuncture into EDTA; endogenous in cells; host or cells: leukocytes isolated from whole human blood (dextran sedimentation, hypotonic lysis)
T1 sequence (P09917 1-674): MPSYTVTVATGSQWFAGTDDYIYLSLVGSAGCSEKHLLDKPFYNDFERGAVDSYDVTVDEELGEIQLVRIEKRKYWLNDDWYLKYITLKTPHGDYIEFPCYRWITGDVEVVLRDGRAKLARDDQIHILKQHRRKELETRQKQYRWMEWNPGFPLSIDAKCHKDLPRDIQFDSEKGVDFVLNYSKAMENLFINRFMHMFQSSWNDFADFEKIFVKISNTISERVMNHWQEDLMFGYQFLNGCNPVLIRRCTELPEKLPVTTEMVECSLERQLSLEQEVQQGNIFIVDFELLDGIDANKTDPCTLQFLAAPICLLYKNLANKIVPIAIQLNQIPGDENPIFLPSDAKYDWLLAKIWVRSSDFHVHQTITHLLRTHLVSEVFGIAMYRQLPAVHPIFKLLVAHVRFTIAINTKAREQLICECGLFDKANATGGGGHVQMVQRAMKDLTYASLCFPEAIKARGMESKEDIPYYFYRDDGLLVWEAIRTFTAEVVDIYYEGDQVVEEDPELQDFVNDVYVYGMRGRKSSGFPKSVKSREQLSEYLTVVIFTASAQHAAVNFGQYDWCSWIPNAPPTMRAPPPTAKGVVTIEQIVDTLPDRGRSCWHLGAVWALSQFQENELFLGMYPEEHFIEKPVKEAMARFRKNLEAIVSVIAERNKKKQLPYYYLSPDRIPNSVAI
Briefly: 5-Lipoxygenase inhibition in human leukocytes (A23187-stimulated, LTC4 radioimmunoassay). Particulars: human leukocytes, A23187 Calcium Ionophore, LTC4 formed; read-out: IC50. The format is cell-based. How it is done: The test method described below measures the ability of compounds to inhibit 5-lipoxygenase activity in human leukocytes.
Whole human blood is collected by venipuncture into EDTA (1.4 mL of 0.25M per 60 mL of whole blood). The red blood cells are sedimented with a 6% dextran/0.9% sodium chloride solution at a ratio of 25 mL whole blood to 15 mL dextran solution. The blood/dextran combination is mixed by inversion and the red blood cells are allowed to settle out for 45 minutes at ambient temperature. The plasma/dextran supernatant is removed then centrifuged at ambient temperature at 3000 rpm for 10 minutes. The plasma/dextran supernatant is removed and the cells are resuspended in 10 mL of the plasma/dextran solution. […] The pellet is then resuspended into Tris buffer containing 1 mM calcium chloride to provide approximately 1.0 X 10^7 cells/mL.
Compounds are dissolved in dimethyl sulfoxide. […] Each concentration is tested in duplicate.
A 15 µL portion of Tris buffer containing 1 mM calcium chloride is added to each well of a 96 well microtiter plate. A 1 µL portion of drug solution or vehicle (dimethyl sulfoxide) is added to each well followed by the addition of an 75 µL portion of the cell suspension. The plates are gently mixed then allowed to stand at ambient temperature for 10 minutes. A 10 µL portion of 30 µM A23187 Calcium Ionophore (prepared by dissolving the ionophore in DMSO and then diluting 1:80 into the Tris buffer) is added to each well except the wells that contain the blanks (The blank wells measure the level of LTC4 production in the absence of A23187.). The plates are gently mixed then incubated at 37°C for 10 minutes.
Following incubation the plates are centrifuged at 2000 rpm for 1.5 minutes and the supernatant is removed as quickly as possible to stop the reaction. The supernatants are frozen at -20°C until they are assayed.
The supernatants are assayed for the presence of Leukotriene C4 by radioimmunoassay which is performed according to the manufacturer's (Advanced Magnetics; Cambridge, MA) instructions.

The subject of test [3] is production of Leukotriene C4 in mouse peritoneal macrophages. Briefly: In vitro mouse peritoneal macrophage Leukotriene C4 inhibition (zymosan-stimulated, LTC4 radioimmunoassay). Format: cell-based. The settings on record: Zymosan 50 µg/mL. Here is the method:
The test method described below measures the ability of compounds to inhibit the production of Leukotriene C4 in mouse peritoneal macrophages.
Mice (female, CD-1, weighing 25 g) are euthanized by exposure to carbon dioxide. The peritoneal cavity is exposed by peeling back the abdominal skin. A 5 mL portion of media (M199 containing 1% fetal bovine serum, 100 units/mL of penicillin, 100 µg/mL of streptomycin, 20 units/mL of heparin and no glutamine) is injected into the exposed peritoneal cavity of each mouse. The lavage fluid is removed and pooled to yield approximately1 X 10^6 macrophages/mL. A 2 mL portion of lavage fluid is added to each well of a 24 well sterile multidish and the macrophages are allowed to adhere to the plate for 2 hours at 37°C in a 5% carbon dioxide atmosphere. The media is removed and each well is washed with 2 mL of phosphate buffered saline (PBS). A 1 mL portion of media, without heparin, but containing 5 µCi/mL of 3H-myoinositol is added to each well and the plates are incubated overnight at 37°C in a 5% carbon dioxide atmosphere. The media is removed and the cells are washed twice with 2 mL portions of PBS. A 1 mL portion of Puck's saline formulation A containing 1 mM calcium chloride, 1 mM magnesium chloride and 10 mM lithium chloride is added to each well. (The Puck's formulation is made first as a 10X solution which contains 4 g of potassium chloride, 80 g of sodium chloride and 10 g of glucose per liter. The Puck's saline formulation A is made using 10 mL of the 10X Puck's formulation, 0.47 mL of 7.5% sodium bicarbonate and 2 mL of 1M N-2-hydroxyethylpiperazine-N'-2-ethanesulfonic acid per 100 mL.)
Compounds are dissolved in dimethyl sulfoxide. Compounds are tested at concentrations of 10, 1 and 0.1 µM. Each concentration is tested in duplicate.
A 1 µL portion of compound solution or vehicle (DMSO) is added to each well and the plates are incubated for 15 minutes at 37°C in a 5% carbon dioxide atmosphere. Zymosan is then added to provide a final concentration of 50 µg/mL in each well and the plate is incubated for 1 to 2 hours at 37°C in a 5% carbon dioxide atmosphere.
Following incubation 200 µL portions of media are transferred to 12 X 75 mm tubes. The tubes are either assayed immediately or stored at -20°C until they can be assayed.
The media is assayed for the presence of Leukotriene C4 by radioimmunoassay which is performed according to the manufacturer's (Advanced Magnetics; Cambridge, MA) instructions.

As to `CSc1cccc(NC(=O)N(C)O)c1` [Compound 3, 1-hydroxy-1-methyl-3-[3-(methylthio)phenyl]urea], in test [1] (5 mg/Kg, 2 hour post dose), the “% Inhibition 2 hour” value was determined as 99%. The “% Inhibition 4 hour” value in test [1] (5 mg/Kg, 4 hour post dose) is on record as 95%. In test [1] (5 mg/Kg, 6 hour post dose), the “% Inhibition 6 hour” value was 51% and 84%. Besides, the inhibition at 5 mg/kg was 100% in test [1] (1 h, 1 hour post dose, read-out: % Inhibition 1 hour); 100% in test [1] (2 h, 2 hour post dose, read-out: % Inhibition 2 hour); 83% in test [1] (4 h, 4 hour post dose, read-out: % Inhibition 4 hour). The “%I” value in test [2] (5 mg/Kg) is recorded as 39%. Besides, at 5-lipoxygenase, the pIC50 is 7.09.
For the molecule `CCCN(O)C(=O)Nc1ccccc1` [Compound 55, 1-hydroxy-3-phenyl-1-propylurea], the “%I” value in test [2] (50 mg/Kg) was 8%. For the same molecule, the pIC50 at 5-lipoxygenase was 7.28.
`CN(O)C(=O)Nc1cccc(OS(=O)(=O)C(F)(F)F)c1` [Compound 2, 1-hydroxy-1-methyl-3-[3-(trifluoromethylsulfonoxy)phenyl]urea]: the negative-log IC50 (pIC50) on 5-lipoxygenase was 7.40.
With `COc1cccc(NC(=O)NO)c1` [Compound 33, 1-hydroxy-3-(3-methoxyphenyl)urea], in test [2] (25 mg/Kg), the “%I” value amounted to 26%. Also, the negative logarithm of the IC50 (pIC50) at 5-lipoxygenase is 5.04.
As for `CN(O)C(=O)Nc1cccc(SC(F)(F)F)c1` [Compound 4, 1-hydroxy-1-methyl-3-[3-(trifluoromethylthio)phenyl]urea], on 5-lipoxygenase, the negative logarithm of the IC50 (pIC50) is 7.57.
In the case of `O=C(Nc1ccc([N+](=O)[O-])cc1)N(O)C1CCCCCCC1` [Compound 38, 1-Cyclooctyl-1-hydroxy-3-(4-nitrophenyl)urea], the “%I” value in test [2] (50 mg/Kg) amounted to 2%. Also, the pIC50 in test [3] was greater than 6.00.
On to `Cc1cc(C)c(NC(=O)N(O)C(C)C)cc1C` [Compound 67, 1-Hydroxy-1-(1-methylethyl)-3-(2,4,5-trimethylphenyl)urea], for which, in test [2] (50 mg/Kg), the “%I” value was found to be 23%. The molecule further showed a negative logarithm of the IC50 (pIC50) in test [3] greater than 6.00.
As for `CCC(CC)N(O)C(=O)Nc1ccccc1Oc1ccccc1` [Compound 76, 1-Hydroxy-1-(1-ethylpropyl)-3-(2-phenoxyphenyl)urea], the “%I” value in test [2] (50 mg/Kg) was 13%. Further, the pIC50 in test [3] was greater than 7.00.
Take `O=C(Nc1ccccc1)N(O)C1CCCCCC1` [Compound 51, 1-cycloheptyl-1-hydroxy-3-phenylurea]: the “%I” value in test [2] (50 mg/Kg) is on record as 22%. Besides, in test [3], the pIC50 is 6.22.
For `CCCCCCCCN(O)C(=O)Nc1ccccc1` [Compound 52, 1-hydroxy-1-octyl-3-phenylurea], in that order: 9% and greater than 7.00.
Turning to `CCC(CC)N(O)C(=O)Nc1cccc(Oc2ccccc2)c1` [Compound 77, 1-Hydroxy-1-(1-ethylpropyl)-3-(3-phenoxyphenyl)urea], in test [2] (50 mg/Kg), the “%I” value is given as 7%. For the same molecule, the pIC50 in test [3] is greater than 7.00.
